# Reference: patent US8748608B2, “4-phenylpiperazine derivatives with functionalized linkers as dopamine D3 receptor selective ligands and methods of use” (The United States of America as Represented by the …, priority 2007, dated 2014)
# Structures can show the parent of a compound that is named as a salt.
row,SMILES,melting point
1,"O=C(NC/C=C/CN1CCN(c2cccc(Cl)c2Cl)CC1)c1ccc(-c2cccc[n+]2[O-])cc1 (as salt: oxalate) [Compound 12, N-(4-(4-(2,3-Dichloro-phenyl)-piperazin-1-yl)-trans-but-2-enyl)-4-(pyridin-N-oxide-2-yl)-benzamide]",153 to 154 °C
2,"COc1ccccc1N1CCN(C/C=C/CNC(=O)c2ccc3c(c2)Cc2ccccc2-3)CC1 (as salt: hydrochloride) [Compound 15, N-(4-(4-(2-methoxyphenyl)piperazin-1-yl)-trans-but-2-enyl)-9H-fluorene-2-carboxamide]",224 to 226 °C
3,"COc1ccccc1N1CCN(CCCCNC(=O)c2ccc3c(c2)Cc2ccccc2-3)CC1 (as salt: hydrochloride) [Compound 7, N-(4-(4-(2-Methoxyphenyl)piperazin-1-yl)butyl)-9H-fluorene-2-carboxamide]",208 to 210 °C
4,"Cc1cccc(-c2ccc(C(=O)NC/C=C/CN3CCN(c4cccc(Cl)c4Cl)CC3)cc2)n1 (as salt: oxalate) [Compound 10, N-(4-(4-(2,3-Dichloro-phenyl)-piperazin-1-yl)-trans-but-2-enyl)-4-(6-methyl-pyridin-2-yl)-benzamide]",125 to 126 °C
5,"O=C(NC/C=C/CN1CCN(c2cccc(Cl)c2Cl)CC1)c1ccc(-c2cccc(=O)[nH]2)cc1 (as salt: oxalate) [Compound 9, N-(4-(4-(2,3-Dichloro-phenyl)-piperazin-1-yl)-trans-but-2-enyl)-4-(6-oxo-1,6-dihydro-pyridin-2-yl)-benzamide]",153 to 154 °C
